Measured values taken from patent EP3061750A1, “PYRAZOLE AMIDE COMPOUND CONTAINING DIPHENYL ETHER, AND APPLICATION THEREOF, AND PESTICIDE COMPOSITION” (Central China Normal University, priority 2013, dated 2015).

Tests used:
[1] = test system: Cucumber powdery mildew (Sphaerotheca uliginea); assay: pot in vivo assay of bactericidal activity, cucumber powdery mildew; details: for pest or weed control at 200 µg/mL: Cucumis sativus, read-out: Efficacy(%) cucumber powery mildew
Excerpt: (§1) This test is used to determine the bactericidal activity of the compounds prepared in Example 1, Preparation Examples 1 and 2.
(§2) The targets used in the test example are rice sheath blight and cucumber powdery mildew.
(§3) Test Method: According to "Standard Practice for determination of pesticide biological activity (SOP)", pyrazole amide compound containing diphenyl ether was dispensed to 5% emulsifiable concentrates (hereinafter referred to as 5% EC), […] method (pot in vivo assay). The screening results on the two test targets of the compounds prepared in Example 1, Preparation Examples 1 and 2 were shown in Table 4.
Cucumber powdery mildew (Sphaerotheca uliginea)
A cucumber seedling with uniform growth in true leaf stage was chosen, and dried in shade for 24h after spray treatment. Fresh cucumber powdery mildew spores on the cucumber leaves were collected and washed, and filtered through a double gauze to prepare a spore suspension with concentration of about 100,000 / ml, then spray inoculation was applied. The test materials inoculated were moved into artificial climate with relative humidity of 60-70% and temperature of 21-23 °C (indoor lighting), after about 10 days, investigating and grading were carried out according to the incidence of the blank control, and the control effect was calculated according to the disease index.
(§4) Investigation method and grading standard adopted "Guidelines for the field efficacy trials of pesticides", and the control effect was calculated with the disease index. The disease index = Σ(number of diseased leaves at each grade×relative grade value) × 100/(total number of leaves×9); [formula] Control effect (%) = (disease index of control−disease index of treated) × 100/disease index of control. [formula]

[2] = test system: Rice sheath blight (Rhizoctonia solani); assay: pot in vivo assay of bactericidal activity, rice sheath blight; details: for pest or weed control at 200 µg/mL: Rhizoctonia solani, read-out: Efficacy(%) rice sheath blight
Excerpt: as §1, §2
as §3, with “EC), the” for “EC),”
Rice sheath blight (Rhizoctonia solani)
Two potted rice seedlings with uniform growth in true leaf stage were chosen, and dried by air after spray treatment. The side of bacteria cake with mycelium was closely attached on the leaves, after cultured at 22-26 °C under dark light in a moisture preserving manner for 24h, then cultured with natural light for about 4 days. The diameter of disease spot of each inoculating point was measured by using a caliper after the control material was fully attacked by disease, and the control effect was calculated.
as §4

succinate dehydrogenase = biological target: T1, succinate dehydrogenase (Sus scrofa, UniProt A5GZW8+D0VWV4+Q007T0); assay: inhibitory activity on succinate dehydrogenase (DCIP reduction at 600 nm); type: biochemical, pig
T1 construct: succinate dehydrogenase, which was isolated from pig hearts; from tissue; host or cells: pig heart
Experimental: This test was used to determine the inhibitory activity on the succinate dehydrogenase of the compounds prepared in Example 1, Preparation Examples 1 and 2 .
The enzyme used in the test example was succinate dehydrogenase, which was isolated from pig hearts.
Test Method: total volume was 1.8ml, the system comprised 100mM Na2HPO4-NaH2PO4 buffer (pH7.4), 0.3mM EDTA, 20mM sodium succinate, 53µM DCIP (2,6-dichloro indophenol sodium), 2nM succinate dehydrogenase. In water bath with 23 °C of constant temperature and 600rpm magnetic stirring, the reduction of the light absorption of substrate DCIP was monitored at a wavelength of 600nm, the experimental points within the linear range were collected, that is, the experimental points in which the consumption of substrate was controlled not exceeding 5% were collected. The molar extinction coefficient of DCIP was 21mM^-1cm^-1. The reduction amount of DCIP during the reaction time was calculated and linear slope was fitted, and then the initial velocity of the reaction was obtained by deducting the baseline slope.

T1 sequence (Q007T0 29-280): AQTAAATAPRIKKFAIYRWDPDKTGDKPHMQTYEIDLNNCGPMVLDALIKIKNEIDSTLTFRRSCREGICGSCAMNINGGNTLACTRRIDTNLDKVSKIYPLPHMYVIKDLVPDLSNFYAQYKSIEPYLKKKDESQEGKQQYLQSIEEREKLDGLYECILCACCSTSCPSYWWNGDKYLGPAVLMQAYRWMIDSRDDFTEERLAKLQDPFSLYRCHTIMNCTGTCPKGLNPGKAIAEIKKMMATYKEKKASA
T1 sequence (D0VWV4 30-169): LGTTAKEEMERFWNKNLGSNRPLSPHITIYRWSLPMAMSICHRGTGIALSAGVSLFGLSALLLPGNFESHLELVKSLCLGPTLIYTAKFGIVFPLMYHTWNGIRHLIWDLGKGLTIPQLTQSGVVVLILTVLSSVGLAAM
T1 sequence (A5GZW8 57-159 limits assumed): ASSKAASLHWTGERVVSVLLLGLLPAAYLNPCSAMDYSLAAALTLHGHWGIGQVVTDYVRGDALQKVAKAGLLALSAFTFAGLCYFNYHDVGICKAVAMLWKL
T1 sequence (Q0QF01 43-664 partner): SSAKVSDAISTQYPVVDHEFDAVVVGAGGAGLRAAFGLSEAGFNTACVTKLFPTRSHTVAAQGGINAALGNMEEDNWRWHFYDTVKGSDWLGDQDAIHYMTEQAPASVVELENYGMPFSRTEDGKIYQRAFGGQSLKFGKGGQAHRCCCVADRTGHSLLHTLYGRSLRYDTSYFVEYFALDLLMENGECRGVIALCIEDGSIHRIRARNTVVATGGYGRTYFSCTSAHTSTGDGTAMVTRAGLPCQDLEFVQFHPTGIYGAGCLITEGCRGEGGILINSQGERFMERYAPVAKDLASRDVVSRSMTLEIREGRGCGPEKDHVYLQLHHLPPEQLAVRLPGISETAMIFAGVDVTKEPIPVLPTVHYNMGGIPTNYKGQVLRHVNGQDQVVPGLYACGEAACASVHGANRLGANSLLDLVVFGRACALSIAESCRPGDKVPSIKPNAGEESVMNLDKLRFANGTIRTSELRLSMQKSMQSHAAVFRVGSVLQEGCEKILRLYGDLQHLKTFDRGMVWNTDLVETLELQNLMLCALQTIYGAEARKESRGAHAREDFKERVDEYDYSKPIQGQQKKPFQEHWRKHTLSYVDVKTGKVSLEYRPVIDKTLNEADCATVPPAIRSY

| SMILES | pest or weed control at 200 µg/mL [1] | pest or weed control at 200 µg/mL [2] | IC50 (succinate dehydrogenase) | further results |
| --- | --- | --- | --- | --- |
| Cn1cc(C(=O)Nc2ccccc2Oc2ccc(F)cc2)c(C(F)(F)F)n1 [III-3] | 0% | 57% | > 100 µM | – |
| Cn1cc(C(=O)Nc2ccccc2Oc2ccccc2Cl)c(C(F)(F)F)n1 [III-8] | 0% | 81.9% | 1.98 ± 1.39 µM | – |
| Cn1cc(C(=O)Nc2ccccc2Oc2ccc(Cl)cc2)c(C(F)F)n1 [III-10] | 0% | 68.3% | 2.02 ± 1.15 µM | – |
| Cn1cc(C(=O)Nc2ccccc2Oc2ccc(C#N)cc2)c(C(F)F)n1 [III-7] | 0% | 45% | > 100 µM | – |
| Cn1cc(C(=O)Nc2ccccc2Oc2ccc(Cl)cc2Cl)c(C(F)F)n1 [Compound I] | 100% | 100% | 0.401 ± 0.0103 µM | efficacy on cucumber powery mildew(%) ([1]; concentration 100 mg/L): 0%; efficacy on rice sheath bilght(%) ([2]; concentration 1 mg/L): 20.74%; efficacy on rice sheath bilght(%) ([2]; concentration 1.5 mg/L): 45.38%; efficacy on rice sheath bilght(%) ([2]; concentration 3.125 mg/L): 65.37%; efficacy on rice sheath bilght(%) ([2]; concentration 6.25 mg/L): 68.77%; efficacy on rice sheath bilght(%) ([2]; concentration 12.5 mg/L): 81.72%; efficacy on rice sheath bilght(%) ([2]; concentration 25 mg/L): 95%; efficacy on rice sheath bilght(%) ([2]; concentration 50 mg/L): 98%; efficacy on rice sheath bilght(%) ([2]; concentration 100 mg/L): 100%; inhibition at 0.03 µM (succinate dehydrogenase; read-out: inhibition ratio(%)): 18.3%; inhibition at 0.05 µM (succinate dehydrogenase; read-out: inhibition ratio(%)): 21.6%; inhibition at 0.1 µM (succinate dehydrogenase; read-out: inhibition ratio(%)): 27%; inhibition at 0.2 µM (succinate dehydrogenase; read-out: inhibition ratio(%)): 37.4%; inhibition at 0.3 µM (succinate dehydrogenase; read-out: inhibition ratio(%)): 42.1%; inhibition at 0.5 µM (succinate dehydrogenase; read-out: inhibition ratio(%)): 52.3%; inhibition at 1 µM (succinate dehydrogenase; read-out: inhibition ratio(%)): 66.9%; inhibition at 10 µM (succinate dehydrogenase; read-out: inhibition ratio(%)): 74.4%; inhibition at 50 µM (succinate dehydrogenase; read-out: inhibition ratio(%)): 73% |
| COc1cc(Oc2ccccc2NC(=O)c2cn(C)nc2C(F)F)cc(OC)c1OC [III-5] | 0% | 0% | > 100 µM | – |
| Cc1cccc(Oc2ccccc2NC(=O)c2cn(C)nc2C(F)F)c1C [III-14] | 0% | 65.9% | 3.22 ± 1.33 µM | – |
| Cn1cc(C(=O)Nc2ccccc2Oc2cccc(Cl)c2)c(C(F)(F)F)n1 [III-1] | 22.2% | 68.6% | 36.9 ± 1.47 µM | – |
| Cc1cc(C)cc(Oc2ccccc2NC(=O)c2cn(C)nc2C(F)(F)F)c1 [III-15] | 0% | 55.2% | 5.12 ± 1.04 µM | – |
| Cn1cc(C(=O)Nc2ccccc2Oc2ccc(C(C)(C)C)cc2)c(C(F)F)n1 [Comparative compound 21, reference compound] | 0% | 22.3% | 1.18 ± 0.0137 µM | inhibition at 0.1 µM (succinate dehydrogenase; read-out: inhibition ratio(%)): 0%; inhibition at 0.2 µM (succinate dehydrogenase; read-out: inhibition ratio(%)): 24.7%; inhibition at 0.3 µM (succinate dehydrogenase; read-out: inhibition ratio(%)): 27.4%; inhibition at 0.5 µM (succinate dehydrogenase; read-out: inhibition ratio(%)): 34.6%; inhibition at 1 µM (succinate dehydrogenase; read-out: inhibition ratio(%)): 46.9%; inhibition at 3 µM (succinate dehydrogenase; read-out: inhibition ratio(%)): 60.7%; inhibition at 10 µM (succinate dehydrogenase; read-out: inhibition ratio(%)): 79.4%; inhibition at 50 µM (succinate dehydrogenase; read-out: inhibition ratio(%)): 80.8% |
